Test results reported in patent US20250388574A1, “HETEROCYCLIC COMPOUNDS AS TRIGGERING RECEPTOR EXPRESSED ON MYELOID CELLS 2 AGONISTS AND METHODS OF USE” (AMGEN INC., priority 2020, published 2025).

Biological target: hTREM2 (Homo sapiens, UniProt Q9NZC2)
Test: Phospho-Syk AlphaScreen/AlphaLISA assay in TREM2 and DAP12 overexpressing HEK293 cells (Example A1)
Format: cell-based
Parameters: expressed in transfected cells
Conditions: HEK293 cells; for EC50: read-out: hTREM2 EC50
In short: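 Single-cell-cloned HEK293 stably overexpressing TREM2 and DAP12, plated 20,000 cells/well for 20 h, then exposed to compounds (1% DMSO) 45 min at room temperature. Lysates probed for phospho-Syk by AlphaLISA sandwich (anti-pSyk, biotinylated anti-Syk); signal normalized to percent of control (100 nM anti-TREM2 antibody vs isotype) and fitted by 4-parameter logistic.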

Sequence of hTREM2 (Q9NZC2 19-230): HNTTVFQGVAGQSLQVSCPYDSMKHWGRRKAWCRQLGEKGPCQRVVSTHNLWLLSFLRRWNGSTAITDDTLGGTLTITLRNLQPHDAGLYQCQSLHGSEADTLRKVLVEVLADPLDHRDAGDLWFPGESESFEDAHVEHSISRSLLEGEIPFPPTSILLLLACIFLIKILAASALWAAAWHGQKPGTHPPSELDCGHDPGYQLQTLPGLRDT
Sequence of hTREM2 (O43914 22-113 partner): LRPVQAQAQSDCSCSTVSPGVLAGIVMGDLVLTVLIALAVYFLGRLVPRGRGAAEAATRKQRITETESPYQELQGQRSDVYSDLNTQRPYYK

Compound	Emax	EC50
CCc1nnc([C@@H]2CN(c3cc4nc(C)n(C)c(=O)c4c(-c4ccc(Cl)cc4F)n3)CCO2)[nH]1 [Example 241, (S)-5-(4-chloro-2-fluorophenyl)-7-(2-(5-ethyl-4H-1,2,4-triazol-3-yl)morpholino)-2,3-dimethylpyrido[4,3-d]pyrimidin-4(3H)-one]	+++ (Emax>200 and ≤300)	3000 to 100000 nM
COc1cccc([C@@H]2CN(c3cc4nc(C)n(C)c(=O)c4c(-c4ccc(Cl)cc4F)n3)CCO2)c1 (single isomer, unassigned) [Example 81]	+++ (Emax>200 and ≤300)	3000 to 100000 nM
Cc1nc2cc(N3CCO[C@@H](c4cccc(OC(F)(F)F)c4)C3)nc(-c3ccc(Cl)cc3F)c2c(=O)n1C (single isomer, unassigned) [Example 98]	+++ (Emax>200 and ≤300)	3000 to 100000 nM
Cc1nc2cc(N3CCO[C@@](C)(C4CC4)C3)nc(-c3ccc(Cl)cc3F)c2c(=O)n1C [Example 219, (S)-5-(4-chloro-2-fluorophenyl)-7-(2-cyclopropyl-2-methylmorpholino)-2,3-dimethylpyrido[4,3-d]pyrimidin-4(3H)-one]	++ (Emax>100 and ≤200)	500 to 3000 nM
CCCn1c(C)nc2cc(N3CCn4ccnc4C3)nc(-c3ccc(Cl)cc3F)c2c1=O [Example 182, 5-(4-chloro-2-fluorophenyl)-7-(5,6-dihydroimidazo[1,2-a]pyrazin-7(8H)-yl)-2-methyl-3-propylpyrido[4,3-d]pyrimidin-4(3H)-one]	+++ (Emax>200 and ≤300)	3000 to 100000 nM
CCCn1c(C)nc2cc(N3CCO[C@@H](CF)C3)nc(-c3ccc(Cl)cc3F)c2c1=O [Example 192, (R)-5-(4-chloro-2-fluorophenyl)-7-(2-(fluoromethyl)morpholino)-2-methyl-3-propylpyrido[4,3-d]pyrimidin-4(3H)-one]	++++ (Emax>300)	500 to 3000 nM
Cc1nc2cc(N3CCC(F)(F)[C@H](N4CCC4)C3)nc(-c3ccc(Cl)cc3F)c2c(=O)n1C [Example 249, (R)-7-(3-(azetidin-1-yl)-4,4-difluoropiperidin-1-yl)-5-(4-chloro-2-fluorophenyl)-2,3-dimethylpyrido[4,3-d]pyrimidin-4(3H)-one]	++++ (Emax>300)	500 to 3000 nM
Cc1nc2cc(N3C[C@@H](c4ccsc4)O[C@@H](C)C3)nc(-c3ccc(Cl)cc3F)c2c(=O)n1C (single isomer, unassigned) [Example 72]	++++ (Emax>300)	500 to 3000 nM
Cc1nc2cc(N3CCO[C@H](c4noc(C5CC5)n4)C3)nc(-c3ccc(Cl)cc3F)c2c(=O)n1C (single isomer, unassigned) [Example 85]	++++ (Emax>300)	3000 to 100000 nM
Cc1nc2cc(N3CCC[C@H](c4ccccc4)C3)nc(-c3ccc(Cl)cc3F)c2c(=O)n1C [Example 213, (R)-5-(4-chloro-2-fluorophenyl)-2,3-dimethyl-7-(3-phenylpiperidin-1-yl)pyrido[4,3-d]pyrimidin-4(3H)-one]	++++ (Emax>300)	3000 to 100000 nM
Cc1nc2cc(N3CCOC(C)(c4cnn(C)c4)C3)nc(-c3ccc(Cl)cc3F)c2c(=O)n1C (stereo not drawn) [Example 31, 5-(4-chloro-2-fluorophenyl)-2,3-dimethyl-7-(2-methyl-2-(1-methyl-1H-pyrazol-4-yl)-4-morpholinyl)pyrido[4,3-d]pyrimidin-4(3H)-one]	++++ (Emax>300)	3000 to 100000 nM
Cc1nc2cc(N3CCCC(N(C)C)C3)nc(-c3ccc(Cl)cc3F)c2c(=O)n1C (stereo not drawn) [Example 109, 5-(4-chloro-2-fluoro-phenyl)-7-(3-(dimethylamino)-1-piperidinyl)-2,3-dimethylpyrido[4,3-d]pyrimidin-4(3H)-one]	++++ (Emax>300)	500 to 3000 nM

Second part, the compound after the results:

Emax	EC50	Compound
++++ (Emax>300)	50 to 500 nM	CCn1cc([C@@H]2CN(c3cc4nc(C)n(C)c(=O)c4c(-c4ccc(Cl)cc4F)n3)CCO2)cn1 [Example 197, (R)-5-(4-chloro-2-fluorophenyl)-7-(2-(1-ethyl-1H-pyrazol-4-yl)morpholino)-2,3-dimethylpyrido[4,3-d]pyrimidin-4(3H)-one]
+++ (Emax>200 and ≤300)	500 to 3000 nM	5-(4-chloro-2-fluorophenyl)-2,3-dimethyl-7-((2R,4R)-2-(1-methyl-1H-pyrazol-4-yl)tetrahydro-2H-pyran-4-yl)pyrido[4,3-d]pyrimidin-4(3H)-one and 5-(4-chloro-2-fluorophenyl)-2,3-dimethyl-7-((2S,4S)-2-(1-methyl-1H-pyrazol-4-yl)tetrahydro-2H-pyran-4-yl)pyrido[4,3-d]pyrimidin-4(3H)-one [Example 161]
+++ (Emax>200 and ≤300)	500 to 3000 nM	Cc1nc2cc(N3C[C@@H](c4cnn(C)c4)OC[C@H]3C)nc(-c3ccc(Cl)cc3F)c2c(=O)n1C (single isomer, unassigned) [Example 26]
++++ (Emax>300)	500 to 3000 nM	Cc1nc2cc(N3CCO[C@H]([C@@H]4CCO4)C3)nc(-c3ccc(Cl)cc3F)c2c(=O)n1C [Example 269, 5-(4-chloro-2-fluorophenyl)-2,3-dimethyl-7-((S)-2-((S)-oxetan-2-yl)morpholino)pyrido[4,3-d]pyrimidin-4(3H)-one]
+++ (Emax>200 and ≤300)	< 50 nM	Cc1nc2cc(N3CCO[C@@H](c4ccnc(C(F)(F)F)c4)C3)nc(-c3ccc(Cl)cc3F)c2c(=O)n1C [Example 266, (S)-5-(4-chloro-2-fluorophenyl)-2,3-dimethyl-7-(2-(2-(trifluoromethyl)pyridin-4-yl)morpholino)pyrido[4,3-d]pyrimidin-4(3H)-one]
+++ (Emax>200 and ≤300)	500 to 3000 nM	COc1cc([C@@H]2C[C@H](c3cc4nc(C)n(C)c(=O)c4c(-c4ccc(Cl)cc4F)n3)CCO2)ccn1 (single isomer, unassigned) [Example 173]
+++ (Emax>200 and ≤300)	< 50 nM	Cc1nc2cc(N3CCO[C@@H](c4cnn(CCF)c4)C3)nc(-c3ccc(Cl)cc3F)c2c(=O)n1C [Example 128, 5-(4-chloro-2-fluorophenyl)-7-((2S)-2-(1-(2-fluoroethyl)-1H-pyrazol-4-yl)-4-morpholinyl)-2,3-dimethylpyrido[4,3-d]pyrimidin-4(3H)-one]
++ (Emax>100 and ≤200)	50 to 500 nM	COc1ncnc2c1CN(c1cc3nc(C)n(C)c(=O)c3c(-c3ccc(Cl)cc3F)n1)CC2 [Example 116, 5′-(4-chloro-2-fluorophenyl)-4-methoxy-2′,3′-dimethyl-7,8-dihydro-5H-[6,7′-bipyrido[4,3-d]pyrimidin]-4′(3′H)-one]
++++ (Emax>300)	50 to 500 nM	Cc1nc2cc(N3CCO[C@@H](c4cnn(C)c4)C3)nc(-c3ccc(C(F)(F)F)cc3F)c2c(=O)n1C [Example 13, 5-(2-fluoro-4-(trifluoromethyl)phenyl)-2,3-dimethyl-7-((2S)-2-(1-methyl-1H-pyrazol-4-yl)-4-morpholinyl)pyrido[4,3-d]pyrimidin-4(3H)-one]
+++ (Emax>200 and ≤300)	< 50 nM	Cc1nc2cc([C@H]3CCO[C@@H](c4cnn(C)c4)C3)nc(-c3ccc(Cl)cc3F)c2c(=O)n1C (single isomer, unassigned) [Example 162]
	50 to 500 nM	Cc1nc2cc(N3CCO[C@@H](c4cnn(C(F)CO)c4)C3)nc(-c3ccc(Cl)cc3F)c2c(=O)n1C (stereo partly drawn) [Example 130, 5-(4-chloro-2-fluorophenyl)-7-((2S)-2-(1-(1-fluoro-2-hydroxyethyl)-1H-pyrazol-4-yl)-4-morpholinyl)-2,3-dimethylpyrido[4,3-d]pyrimidin-4(3H)-one]
++++ (Emax>300)	< 50 nM	Cc1nc2cc(N3CCO[C@@H](c4cnn(C5CCC5)c4)C3)nc(-c3ccc(Cl)cc3F)c2c(=O)n1C [Example 124, 5-(4-chloro-2-fluorophenyl)-7-((2S)-2-(1-cyclobutyl-1H-pyrazol-4-yl)-4-morpholinyl)-2,3-dimethylpyrido[4,3-d]pyrimidin-4(3H)-one]
+++ (Emax>200 and ≤300)	< 50 nM	Cc1nc2cc(N3CCO[C@@H](c4cnn(C(C)F)c4)C3)nc(-c3ccc(Cl)cc3F)c2c(=O)n1C (stereo partly drawn) [Example 129, 5-(4-chloro-2-fluorophenyl)-7-((2S)-2-(1-(1-fluoroethyl)-1H-pyrazol-4-yl)-4-morpholinyl)-2,3-dimethylpyrido[4,3-d]pyrimidin-4(3H)-one]
++++ (Emax>300)	50 to 500 nM	CCCn1c(C)nc2cc(N3CCO[C@@H](c4ccnn4C)C3)nc(-c3ccc(Cl)cc3F)c2c1=O [Example 155, 5-(4-chloro-2-fluorophenyl)-2-methyl-7-((2R)-2-(1-methyl-1H-pyrazol-5-yl)-4-morpholinyl)-3-propylpyrido[4,3-d]pyrimidin-4(3H)-one]
++++ (Emax>300)	50 to 500 nM	Cc1nc2cc(N3CCO[C@@H](c4cnn(C)c4)C3)nc(-c3ccc(Cl)c(F)c3F)c2c(=O)n1C [Example 14, 5-(4-chloro-2,3-difluorophenyl)-2,3-dimethyl-7-((2S)-2-(1-methyl-1H-pyrazol-4-yl)-4-morpholinyl) pyrido[4,3-d]pyrimidin-4(3H)-one]
++++ (Emax>300)	< 50 nM	CCn1cc([C@H]2CN(c3cc4nc(C)n(C)c(=O)c4c(-c4ccc(Cl)cc4F)n3)CCO2)cn1 (single isomer, unassigned) [Example 23]
++++ (Emax>300)	50 to 500 nM	COc1cccc([C@@H]2CN(c3cc4nc(C)n(C)c(=O)c4c(-c4ccc(Cl)cc4F)n3)CCO2)c1 [Example 238, (R)-5-(4-chloro-2-fluorophenyl)-7-(2-(3-methoxyphenyl)morpholino)-2,3-dimethylpyrido[4,3-d]pyrimidin-4(3H)-one]
